Source: US12661410B2, “Compounds for targeted degradation of RET” (C4 Therapeutics, Inc., priority 2020, dated 2026)
Numbering of substitutions follows the chain as printed. Read-outs that look alike come from different tables or passages of the source.

How the values were obtained:
RET(KD: 658-1114 G810R) = target: T1, RET(KD: 658-1114 G810R) (Homo sapiens, UniProt P07949, G810R); experiment: HiBiT-Degradation, RET G810R degradation assay (Nano-Glo HiBiT Lytic), 293T.165 cells; assay type: cell-based; settings: for Emax / DC50: 6.0 hours; for Emax: % remaining protein, read-out: 293T.165 RET(KD: 658-1114 G810R) 6.0 hours (Emax); for DC50: read-out: 293T.165 RET(KD: 658-1114 G810R) 6.0 hours (DC50)
T1 construct: 658-1114; expressed in transfected cells; host or cells: 293T.165 (293T cells, generated in-house)
T1 sequence (P07949 658-1114 G810R): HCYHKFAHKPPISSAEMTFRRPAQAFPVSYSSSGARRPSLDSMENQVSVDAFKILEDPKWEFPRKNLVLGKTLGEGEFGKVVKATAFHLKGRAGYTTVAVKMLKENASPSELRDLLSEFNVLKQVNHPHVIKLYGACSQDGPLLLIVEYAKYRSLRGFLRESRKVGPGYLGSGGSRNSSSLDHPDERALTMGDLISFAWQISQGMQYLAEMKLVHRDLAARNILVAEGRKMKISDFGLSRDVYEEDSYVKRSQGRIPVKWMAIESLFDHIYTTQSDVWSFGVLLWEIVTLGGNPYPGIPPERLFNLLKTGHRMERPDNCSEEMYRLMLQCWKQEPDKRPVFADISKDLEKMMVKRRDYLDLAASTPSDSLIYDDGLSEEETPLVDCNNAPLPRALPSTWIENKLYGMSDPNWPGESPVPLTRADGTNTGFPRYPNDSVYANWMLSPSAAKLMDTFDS
Outline: (§1)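 HEK293T lines expressing HiBiT-tagged RET kinase domain, wild-type (293T.144) or G810R (293T.165), treated 6 h in duplicate, 11-point half-log series from 10 μM top. Lytic HiBiT luminescence read; DC50 and Emax (% protein remaining) from dose-response curves.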

RET (658-1114) = target: T2, RET (658-1114) (Homo sapiens, UniProt P07949); experiment: HiBiT-Degradation, RET wild-type degradation assay (Nano-Glo HiBiT Lytic), 293T.144 cells; assay type: cell-based; settings: for Emax / DC50: 6.0 hours; for Emax: read-out: 293T.144 RET (658-1114) 6.0 hours (Emax); for DC50: read-out: 293T.144 RET (658-1114) 6.0 hours (DC50)
T2 construct: 658-1114; expressed in transfected cells; host or cells: 293T.144 (293T cells, generated in-house)
T2 sequence (P07949 658-1114): T1 sequence (P07949 658-1114 G810R) with R153G
Outline: as §1

[1] = half-maximal degradation concentration

Row | Compound | 293T.165 RET(KD: 658-1114 G810R) 6.0 hours (IP) [nM] (RET(KD: 658-1114 G810R)) | Emax (RET(KD: 658-1114 G810R)) | DC50 (RET(KD: 658-1114 G810R); [1]) | 293T.144 RET (658-1114) 6.0 hours (IP) [nM] (RET (658-1114)) | Emax (RET (658-1114); % remaining protein) | DC50 (RET (658-1114); [1]) | 293T.165 RET(KD: 658-1114 G810R) 6.0 hours (Emax) (RET(KD: 658-1114 G810R); HiBiT-Degradation) | 293T.165 RET(KD: 658-1114 G810R) 6.0 hours (IP) [nM] (RET(KD: 658-1114 G810R); HiBiT-Degradation) | DC50 (RET(KD: 658-1114 G810R); HiBiT-Degradation) | 293T.144 RET (658-1114) 6.0 hours (IP) [nM] (RET (658-1114); HiBiT-Degradation) | DC50 (RET (658-1114); HiBiT-Degradation) | Emax (RET (658-1114); HiBiT-Degradation)
1 | CCC1(C(=O)NC(C)C)CCN(c2ccc(-c3nc(-c4cnn(C5CCN(C(=O)CC6(O)CCN(c7ccc(NC8CCC(=O)NC8=O)cc7C(F)F)CC6)CC5)c4)cn4ncc(C#N)c34)cn2)CC1 (stereo not drawn) [Compound 96, 1-[5-[3-cyano-6-[1-[1-[2-[1-[2-(difluoromethyl)-4-[(2,6-dioxo-3-piperidyl)amino]phenyl]-4-hydroxy-4-piperidyl]acetyl]-4-piperidyl]pyrazol-4-yl]pyrazolo[1,5-a]pyrazin-4-yl]-2-pyridyl]-4-ethyl-N-isopropyl-piperidine-4-carboxamide] | +++ (<100 nM = +++) | < 50% | < 100 nM | ++++ (<50 nM = ++++) | < 30% | < 50 nM | – | – | – | – | – | –
2 | N#Cc1cnn2cc(-c3cnn(C4CCN(C(=O)CN5CCC(c6ccc(NC7CCC(=O)NC7=O)cc6F)CC5)CC4)c3)cc(-c3ccc(N4CCN(C(=O)Cc5ccc(F)cn5)CC4)nc3)c12 (stereo not drawn) [Compound 5, 6-[1-[1-[2-[4-[4-[(2,6-dioxo-3-piperidyl)amino]-2-fluoro-phenyl]-1-piperidyl]acetyl]-4-piperidyl]pyrazol-4-yl]-4-[6-[4-[2-(5-fluoro-2-pyridyl)acetyl]piperazin-1-yl]-3-pyridyl]pyrazolo[1,5-a]pyridine-3-carbonitrile] | – | < 30% | < 50 nM | – | – | – | ++++ (< 30% = ++++) | ++++ (< 50 nM = ++++) | < 50 nM | ++++ (< 50 nM = ++++) | < 50 nM | < 30%
3 | CCC1(C(=O)NC2CCOCC2)CCN(c2ccc(-c3cc(-c4cnn([C@H]5CC[C@H](CCN6CCC(c7ccc(NC8CCC(=O)NC8=O)cc7F)CC6)CC5)c4)cn4ncc(C#N)c34)cn2)CC1 (stereo partly drawn) [Compound 40, 1-(5-(3-Cyano-6-(1-((trans)-4-(2-(4-(4-((2,6-dioxopiperidin-3-yl)amino)-2-fluorophenyl)piperidin-1-yl)ethyl)cyclohexyl)-1H-pyrazol-4-yl)pyrazolo[1,5-a]pyridin-4-yl)pyridin-2-yl)-4-ethyl-N-(tetrahydro-2H-pyran-4-yl)piperidine-4-carboxamide] | – | < 30% | < 50 nM | – | – | – | ++++ (< 30% = ++++) | ++++ (< 50 nM = ++++) | < 50 nM | ++++ (< 50 nM = ++++) | < 50 nM | < 30%
4 | N#Cc1cnn2cc(-c3cnn(C4CCN(C(=O)CN5CCC(c6ccc(NC7CCC(=O)NC7=O)cc6F)CC5)CC4)c3)cc(-c3ccc(N4CCC(Nc5ccccc5)CC4)nc3)c12 (stereo not drawn) [Compound 46, 4-[6-(4-anilino-1-piperidyl)-3-pyridyl]-6-[1-[1-[2-[4-[4-[(2,6-dioxo-3-piperidyl)amino]-2-fluoro-phenyl]-1-piperidyl]acetyl]-4-piperidyl]pyrazol-4-yl]pyrazolo[1,5-a]pyridine-3-carbonitrile] | – | < 50% | < 100 nM | – | – | – | +++ (<50% = +++) | ++++ (< 50 nM = ++++) | < 100 nM | ++++ (< 50 nM = ++++) | < 50 nM | < 30%
